Measured values: US10342221B2, “Generation of an inducible pericyte-specific CRE mouse model” (University of Southern California, priority 2016, dated 2019)
Like-named read-outs stand apart in the source and are kept apart here.

How the values were obtained:
[1] = test system: pericytes expressing Cre-dependent diphtheria toxin receptor
Experimental: (§1) Animals were sacrificed at 3 days post DT or vehicle treatment (FIG. 3A) or 15 days post DT or vehicle treatment (FIG. 4A) as indicated, and brains were collected and analyzed.
(§2) Animals were anesthetized with an i.p. injection of 100 mg/kg of ketamine and 50 mg/kg of 10 xylazine, and transcardially perfused first with 15 ml saline, followed by 20 ml of 4% paraformaldehyde (PFA) in PBS. Brains were removed, and post-fixed overnight at 4° C. before brain sections were cut at 30 μm thickness. Sections were blocked with 5% normal donkey serum (Vector Laboratories)/0.1% Triton-X/0.01M PBS and incubated with primary antibody diluted in blocking solution overnight at 4° C. […] To visualize brain microvessels, sections were incubated with Dylight 488-conjugated L. esculentum Lectin as the Inventors have previously reported. […] Sections were imaged with a Zeiss LSM 510 confocal laser-scanning microscope using a series of high-resolution optical sections (1,024×1,024-pixel format) that were captured with a 25× water-immersion objective, with 1× zoom at 1-μm step intervals for Z-stacks. Laser settings for gain, digital offset and laser intensity were kept standardized between different treatments and experiments. Z-stack projections and pseudo-coloring were performed using ZEN software (Carl Zeiss Microimaging), and image post-analysis were performed using ImageJ software.
Tissue was incubated for 30 min in 20 μg/ml Proteinase K and the In Situ Cell Death Detection Kit (Roche) was used per the manufacturer's instructions. Sections were coverslipped as described above. For each image, ten microns maximum projection z-stacks were reconstructed and analyzed using ImageJ. […] In each animal 5 randomly selected fields from the cortex were analyzed in 3 nonadjacent sections (˜100 μm apart). Three animals per group were analyzed.
The quantitative analysis of pericyte coverage and numbers was restricted to CD13-positive cells that were associated with brain capillaries defined as microvessels ≤6 μm in diameter, as previously described. The endothelial-specific Lycopersicon esculentum lectin was used to visualize endothelial vascular profiles, and CD13 coverage of brain capillaries was determined as CD13-positive area (percentage) occupying lectin-positive endothelial capillary profiles, as previously. For each image, ten microns maximum projection z-stacks were reconstructed and analyzed using ImageJ. Pericyte numbers were determined by counting the number of CD13-positive cell bodies on the abluminal side of the endothelial membrane (lectin) that co-localized with DAPI (4′,6-diamidino-2-phenylindole)-positive nuclei and tdTomato-positive cell bodies using the Image J Cell Counter plug-in, as the Inventors and others previously described. The number of pericytes was expressed per mm^2 of tissue.

neurons = assay: NeuN-positive neuron numbers and SMI-312 neuritic density
Experimental: as §1
Animals were anesthetized with an i.p. injection of 100 mg/kg of ketamine and 50 mg/kg of 10 xylazine, and transcardially perfused first with 15 ml saline, followed by 20 ml of 4% paraformaldehyde (PFA) in PBS. Brains were removed, and post-fixed overnight at 4° C. before brain sections were cut at 30 μm thickness. Sections were blocked with 5% normal donkey serum (Vector Laboratories)/0.1% Triton-X/0.01M PBS and incubated with primary antibody diluted in blocking solution overnight at 4° C. […] Sections were imaged with a Zeiss LSM 510 confocal laser-scanning microscope using a series of high-resolution optical sections (1,024×1,024-pixel format) that were captured with a 25× water-immersion objective, with 1× zoom at 1-μm step intervals for Z-stacks. Laser settings for gain, digital offset and laser intensity were kept standardized between different treatments and experiments. Z-stack projections and pseudo-coloring were performed using ZEN software (Carl Zeiss Microimaging), and image post-analysis were performed using ImageJ software.
For each image, ten microns maximum projection z-stacks were reconstructed and analyzed using ImageJ. NeuN-positive neurons were determined using the ImageJ Cell Counter analysis tool. In each animal, five randomly selected fields from the cortex and the hippocampus in three nonadjacent sections (˜100 μm apart) were analyzed. Six animals per group were analyzed.

blood-brain barrier = assay: Blood-brain barrier integrity: extravascular IgG and fibrin deposits, ZO-1 tight junction length
Experimental: as §1, §2
For each image, ten microns maximum projection z-stacks were reconstructed and analyzed using ImageJ. The levels of extravascular blood-derived fibrin and IgG deposits indicating BBB breakdown were determined as previously described.
For each image, ten microns maximum projection z-stacks were reconstructed and analyzed using ImageJ. The length of ZO-1-positive tight junctions occupying lectin-positive capillary profiles was determined using the NeuronJ plugin for ImageJ, expressed as the length of ZO-1 (mm) over the lectin-positive capillary area (mm^2) as the Inventors have previously reported. ZO-1 and lectin stainings were performed as described above. The length of ZO1-positive tight junctions was normalized to the total area of lectin-positive microvessels using the Image J Area measurement tool.

[2] = test system: cerebral blood flow (CBF) response; assay: Cerebral blood flow responses by laser-Doppler flowmetry
Experimental: as §1
Animals were initially anesthetized with 100 mg/kg of ketamine and 50 mg/kg of xylazine and were placed on a heating pad (37° C.). The cranium of the mouse was firmly secured in a stereotaxic frame. A high speed dental drill (tip FST 19007-05, Fine Science Tools Inc., Foster City, Calif.) was used to thin a square cranial window about 2×2 mm over the parietal cortex, and 45 degree forceps were used to remove the square piece of skull. Gelfoam (Pharmacia & Upjohn Company, Kalamazoo, Mass.) was applied immediately to control any cranial or dural bleeding. A sterile 5 mm glass cover slip was then placed on the dura mater and sealed with a 1:1 mixture of bone cement and cyanoacrylate based glue.
CBF responses to hindlimb stimulation in anesthetized mice (˜1% isoflurane) were determined using laser-Doppler flowmetry as previously described. The tip of the laser-Doppler probe (Transonic Systems Inc., Ithaca, N.Y.) was stereotaxically placed 0.5 mm above the cranial window over the hindlimb region of the primary somatosensory cortical area. CBF was recorded following electrical stimulation of the hind-limb using a 60 s long stimulus (7 Hz, 2 ms pulse duration). The percentage increase in CBF due to stimulation was obtained by subtracting the baseline CBF from the stable maximum plateau value reached during stimulus, and averaged over three trials per mouse. For CBF response to drug application, the LDF probe was placed stereotaxically over the center of an open cranial window (center at AP=−0.94 mm, L=1.5 mm). Drugs (10 μM Acetylcholine, and 400 μM Adenosine, all from Sigma) were superfused individually over the window, and responses recorded, as the Inventors reported previously. Arterial blood pressure was monitored continuously during the experiment. pH and blood gases were monitored before and after CBF recordings.

[3] = test system: pericytes expressing Cre-dependent diphtheria toxin receptor; format: in vivo, mouse; conditions: TAM-treated Pericyte-CreER; iDTR mice; DT 1 μg i.p. per day for 10 days; 3 days after DT; versus vehicle
hippocampal function = assay: Behavioral tests: novel object location and contextual fear conditioning; format: in vivo, mouse
Experimental: Novel object location test was performed as the Inventors have previously reported. Animals were placed in a […] and allowed to habituate to the testing area for 10 min. Animals were then placed back in their cages and 2 identical approximately 5×5 cm objects were placed in the top left and right corner of the testing area. Animals were allowed to explore the two objects in the testing area for 5 min before being returned to their cages. After an hour interval one of the objects was relocated and the animals were allowed to explore the testing area once again for 3 min. After each trial, the testing area and the objects were thoroughly cleaned with 70% ethanol solution. All the trials, including habituation, were recorded with a high resolution camera and the amount of time each animal spent exploring the objects was analyzed. Any animals that presented a preference for either of the two identical objects, before replacement with the novel location, were eliminated from the analysis. Both male and female animals were used in the study.
Long-term memory formation paradigm in contextual fear conditioning was adapted from a previously described protocol with modifications. The experiment was performed using conditioning chamber made of plexiglas housed in a soundproof isolation cubicle and equipped with a stainless-steel grid floor connected to a solid-state shock scrambler. The scrambler was connected to an electronic constant-current shock source that was controlled via an interface connected to a computer running FreezeFrame software (Coulbourn Instruments, Allentown, Pa., USA). A digital camera was mounted on the steel ceiling and behavior was recorded. […] Hippocampus-dependent fear memory formation was evaluated by scoring freezing behavior (the absence of all movement except for respiration). Percentage of total freezing time was assessed using the automated FreezeFrame system with a threshold set at 10%. […]

[4] = cortex, TAM-treated pericyte-CreER, iDTR mice, 3 days after DT compared to vehicle
[5] = control iDTR animals treated with TAM and DT
[6] = somatosensory cortex and hippocampus, respectively, 15 days after DT compared to vehicle
[7] = TAM-treated pericyte-CreER, iDTR mice, 3 days after DT compared to vehicle

Substance: diphtheria toxin [DT]
- number of astrocytes, astrocytic endfeet coverage on microvessels or microglia density ([1]; 3 days after DT treatment): no changes were observed
- pericyte coverage ([1]; TAM-treated control iDTR mice, same DT injection protocol): no changes in pericyte coverage
- loss of tdTomato-positive pericytes in brain capillaries ([1]; cortex and hippocampus, 3 days after DT treatment compared to vehicle): 95%
- pericyte cell death by TUNEL staining of perivascular tdTomato-positive nuclei ([1]; cortex, 3 days after DT compared to vehicle): contained fragmented DNA
- reduction in pericyte capillary coverage (CD13 on lectin-positive profiles) [1, 4]: 50%
- reduction in pericyte density (CD13-positive pericyte cell bodies) [1, 4]: 60%
- reduction in pericyte density (CD13-positive pericyte cell bodies) ([1]; hippocampus, TAM-treated pericyte-CreER, iDTR mice, 3 days after DT compared to vehicle): 58%
- neuronal or neuritic changes (neurons; before DT treatment and 3 days after last DT injection compared to vehicle): No significant neuronal or neuritic changes
- neuron counts and neuritic density (neurons; [5]): normal neuron counts and neuritic density
- loss of NeuN-positive neuronal cell bodies (neurons; [6]): 20-25%
- reduction in SMI-312-positive neuritic density (neurons; [6]): 30-40%
- reduction in the ZO-1 length on brain capillaries (blood-brain barrier; [7]): 50%
- BBB changes (blood-brain barrier; control iDTR animals that received TAM and DT): did not show any BBB changes
- increase in fibrin deposits (blood-brain barrier; [4]): > 4 fold
- increase in plasma-derived immunoglobulin G deposits (blood-brain barrier; [4]): > 4 fold
- ZO-1 expression (blood-brain barrier; iDTR control animals treated with TAM and DT): No changes
- CBF response in the presence of acetylcholine ([2]; 10 μM acetylcholine superfused, 3 days after DT treatment or vehicle): no difference in CBF response
- CBF response in the presence of adenosine ([2]; 400 μM adenosine superfused, 3 days after DT treatment or vehicle): no difference in CBF response
- reduction in CBF response to hind limb electrical stimulus [2, 7]: 50%
- change in CBF responses ([2]; control iDTR animals that received TAM and DT treatment): No significant change
- loss in DTR protein levels in brain capillaries [3]: 90%
- loss of PDGFRβ protein in brain capillaries [3]: 60%
- novel object location and fear conditioning (hippocampal function; TAM-treated pericyte-CreER, iDTR mice, 15 days after DT treatment): significant behavior deficits
- novel object location and fear conditioning (hippocampal function; TAM-treated pericyte-CreER, iDTR mice, before treatment (0 d), 6 d of DT treatment, 3 days after last DT injection, versus vehicle): did not show deficits
- novel object location and fear conditioning (hippocampal function; [5]): no differences
